Experimental data published in patent US9938258B2 (Karyopharm Therapeutics Inc., priority 2012, dated 2018).
Like-named read-outs stand apart in the source and are kept apart here.

What was measured:
Z138 cells = experiment: MTT cell proliferation assay, Z138; type: cell-based; conditions: Homo sapiens, Z-138, Z138 cells, read-out: MTT Assay IC50, Z138
Procedure, shortened: (§1)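 Cells plated at 5,000-10,000/well and attached overnight, then treated with eight compound concentrations from 1 nM to 30 μM. MTT added ~4 h, formazan solubilised and read at 490 nm. Percent inhibition versus negative control = (1-(ODo/OD))×100, mostly in duplicate, mean ± SE.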

3T3 cells = experiment: MTT cell proliferation assay, 3T3; type: cell-based, mouse; conditions: Mus musculus, NIH3T3, 3T3 cells, read-out: MTT Assay IC50, 3T3
Procedure, shortened: as §1

MS751 cells = experiment: MTT cell proliferation assay, MS751; type: cell-based, human; conditions: Homo sapiens, MS751, MS751 cells, read-out: MTT Assay IC50, MS751
Procedure, shortened: as §1

[1] = approximately 64-72 hours incubation
[2] = eight concentrations 1 nM to 30 μM, incubation approximately 64-72 hours

| SMILES | IC50 (Z138 cells; [1]) [µM] | IC50 (3T3 cells; [1]) [µM] | IC50 (MS751 cells; [1]) [µM] | IC50 (Z138 cells; [2]) [µM] | IC50 (3T3 cells; [2]) [µM] | IC50 (MS751 cells; [2]) [µM] |
| --- | --- | --- | --- | --- | --- | --- |
| CN(C)C(=O)c1ccc(-c2cc(Cl)c3c(c2)CC(CNC(=O)/C=C/c2ccc(N)nc2)O3)cc1 (stereo not drawn) [Compound 233, (E)-4-(2-((3-(6-aminopyridin-3-yl)acrylamido)methyl)-7-chloro-2,3-dihydrobenzofuran-5-yl)-N,N-dimethylbenzamide] | < 0.1 | 5 to 30 | 0.1 to 5 |  |  |  |
| Nc1ccc(/C=C/C(=O)NCC2Cc3cc(-c4ccc(C(=O)N5CCCCC5)cc4)cc(Cl)c3O2)cn1 (stereo not drawn) [Compound 234, (E)-3-(6-aminopyridin-3-yl)-N-((7-chloro-5-(4-(piperidine-1-carbonyl)phenyl)-2,3-dihydrobenzofuran-2-yl)methyl)acrylamide] | < 0.1 | 5 to 30 | < 0.1 |  |  |  |
| Cc1noc(C)c1-c1cc(Cl)c2c(c1)CC(CNC(=O)/C=C/c1cccnn1)O2 (stereo not drawn) [Compound 235, (E)-N-((7-chloro-5-(3,5-dimethylisoxazol-4-yl)-2,3-dihydrobenzofuran-2-yl)methyl)-3-(pyridazin-3-yl)acrylamide] | 0.1 to 5 | 5 to 30 | 0.1 to 5 |  |  |  |
| O=C(/C=C/c1cccnn1)NCC1Cc2cc(-c3ccc(C(=O)N4CCOCC4)cc3)cc(Cl)c2O1 (stereo not drawn) [Compound 236, (E)-N-((7-chloro-5-(4-(morpholine-4-carbonyl)phenyl)-2,3-dihydrobenzofuran-2-yl)methyl)-3-(pyridazin-3-yl)acrylamide] | 0.1 to 5 | 0.1 to 5 | 0.1 to 5 |  |  |  |
| CN1CCN(C(=O)c2ccc(-c3cc(Cl)c4c(c3)CC(CNC(=O)/C=C/c3ccc(N)nc3)O4)cc2)CC1 (stereo not drawn) [Compound 237, (E)-3-(6-aminopyridin-3-yl)-N-((7-chloro-5-(4-(4-methylpiperazine-1-carbonyl)phenyl)-2,3-dihydrobenzofuran-2-yl)methyl)acrylamide] | < 0.1 | 0.1 to 5 | < 0.1 |  |  |  |
| Cc1cc(-c2cc(Cl)c3c(c2)CC(CNC(=O)/C=C/c2ccc(N)nc2)O3)ccc1C(=O)N1CCOCC1 (stereo not drawn) [Compound 238, (E)-3-(6-aminopyridin-3-yl)-N-((7-chloro-5-(3-methyl-4-(morpholine-4-carbonyl)phenyl)-2,3-dihydrobenzofuran-2-yl)methyl)acrylamide] | < 0.1 | 0.1 to 5 | < 0.1 |  |  |  |
| Nc1ccc(/C=C/C(=O)NCC2Cc3cc(-c4cccc(C(=O)N5CCOCC5)c4)cc(Cl)c3O2)cn1 (stereo not drawn) [Compound 239, (E)-3-(6-aminopyridin-3-yl)-N-((7-chloro-5-(3-(morpholine-4-carbonyl)phenyl)-2,3-dihydrobenzofuran-2-yl)methyl)acrylamide] | < 0.1 | 0.1 to 5 | < 0.1 |  |  |  |
| C=C(Cc1cccnc1)C(=O)NCC1Cc2cc(-c3ccc(C(C)=O)s3)cc(Cl)c2O1 (stereo not drawn) [Compound 240, N-((5-(5-acetylthiophen-2-yl)-7-chloro-2,3-dihydrobenzofuran-2-yl)methyl)-2-(pyridin-3-ylmethyl)acrylamide] | 5 to 30 | > 30 | 5 to 30 |  |  |  |
| Nc1ccc(/C=C/C(=O)NCC2Cc3cc(-c4ccc(C(=O)N5CCOCC5)nc4)cc(Cl)c3O2)cn1 (stereo not drawn) [Compound 248, (E)-3-(6-aminopyridin-3-yl)-N-((7-chloro-5-(6-(morpholine-4-carbonyl)pyridin-3-yl)-2,3-dihydrobenzofuran-2-yl)methyl)acrylamide] | < 0.1 | > 30 | 0.1 to 5 |  |  |  |
| Nc1ccc(/C=C/C(=O)NCC2Cc3c(-c4ccc(C(=O)N5CCOCC5)cc4)ccc(Cl)c3O2)cn1 (stereo not drawn) [Compound 249, (E)-3-(6-aminopyridin-3-yl)-N-((7-chloro-4-(4-(morpholine-4-carbonyl)phenyl)-2,3-dihydrobenzofuran-2-yl)methyl)acrylamide] | < 0.1 | 0.1 to 5 | < 0.1 |  |  |  |
| CC(=O)c1ccc(-c2cc(Cl)c3c(c2)CC(CNC(=O)C#Cc2cccnc2)O3)s1 (stereo not drawn) [Compound 251, N-((5-(5-acetylthiophen-2-yl)-7-chloro-2,3-dihydrobenzofuran-2-yl)methyl)-3-(pyridin-3-yl)propiolamide] |  |  |  | 0.1 to 5 | 5 to 30 | 0.1 to 5 |
| CC(=O)c1ccc(-c2cc(Cl)c3c(c2)CC(CNC(=O)/C=C/c2cncnc2)O3)s1 (stereo not drawn) [Compound 254, (E)-N-((5-(5-acetylthiophen-2-yl)-7-chloro-2,3-dihydrobenzofuran-2-yl)methyl)-3-(pyrimidin-5-yl)acrylamide] |  |  |  | > 30 | > 30 | > 30 |
| CC(=O)c1ccc(-c2cc(Cl)c3c(c2)CC(CNC(=O)/C=C/c2cnccn2)O3)s1 (stereo not drawn) [Compound 258, (E)-N-((5-(5-acetylthiophen-2-yl)-7-chloro-2,3-dihydrobenzofuran-2-yl)methyl)-3-(pyrazin-2-yl)acrylamide] |  |  |  | > 30 | > 30 | > 30 |
| CC(=O)c1ccc(-c2cc(Cl)c3c(c2)CC(CNC(=O)/C(C)=C/c2cccnc2)O3)s1 (stereo not drawn) [Compound 262, (E)-N-((5-(5-acetylthiophen-2-yl)-7-chloro-2,3-dihydrobenzofuran-2-yl)methyl)-2-methyl-3-(pyridin-3-yl) acrylamide] |  |  |  | 5 to 30 | > 30 | 5 to 30 |
| CC(=O)c1ccc(-c2cc(Cl)c3c(c2)CC(CNC(=O)/C=C/c2cscn2)O3)s1 (stereo not drawn) [Compound 272, (E)-N-((5-(5-Acetylthiophen-2-yl)-7-chloro-2,3-dihydrobenzofuran-2-yl)methyl)-3-(thiazol-4-yl)acrylamide] |  |  |  | > 30 | 5 to 30 | > 30 |
| CC(=O)c1ccc(-c2cc(Cl)c3c(c2)CC(CNC(=O)/C=C/c2ccnnc2)O3)s1 (stereo not drawn) [Compound 273, (E)-N-((5-(5-acetylthiophen-2-yl)-7-chloro-2,3-dihydrobenzofuran-2-yl)methyl)-3-(pyridazin-4-yl)acrylamide] |  |  |  | 5 to 30 | > 30 | > 30 |
| CCn1nccc1/C=C/C(=O)NCC1Cc2cc(-c3ccc(C(C)=O)s3)cc(Cl)c2O1 (stereo not drawn) [Compound 274, (E)-N-((5-(5-acetylthiophen-2-yl)-7-chloro-2,3-dihydrobenzofuran-2-yl)methyl)-3-(1-ethyl-1H-pyrazol-5-yl)acrylamide] |  |  |  | 5 to 30 | > 30 | 5 to 30 |
| Cc1cc(Cl)c2c(c1)CC(CNC(=O)/C=C/c1cccnc1)O2 (stereo not drawn) [Compound 275, (E)-N-((7-chloro-5-methyl-2,3-dihydrobenzofuran-2-yl)methyl)-3-(pyridin-3-yl)acrylamide] |  |  |  | 5 to 30 | > 30 | 5 to 30 |
| CC(=O)c1ccc(-c2cc(Cl)c3c(c2)CC(CNC(=O)/C=C/c2c(Cl)nc4sccn24)O3)s1 (stereo not drawn) [Compound 276, (E)-N-((5-(5-acetylthiophen-2-yl)-7-chloro-2,3-dihydrobenzofuran-2-yl)methyl)-3-(6-chloroimidazo[2,1-b]thiazol-5-yl)acrylamide] |  |  |  | > 30 | > 30 | > 30 |
| CC(=O)c1ccc(-c2cc(Cl)c3c(c2)CC(CNC(=O)/C=C/c2cc(C)on2)O3)s1 (stereo not drawn) [Compound 277, (E)-N-((5-(5-acetylthiophen-2-yl)-7-chloro-2,3-dihydrobenzofuran-2-yl)methyl)-3-(5-methylisoxazol-3-yl)acrylamide] |  |  |  | > 30 | > 30 | 0.1 to 5 |
| CC(=O)c1ccc(-c2cc(Cl)c3c(c2)CC(CNC(=O)/C=C/c2ncc[nH]2)O3)s1 (stereo not drawn) [Compound 278, (E)-N-((5-(5-acetylthiophen-2-yl)-7-chloro-2,3-dihydrobenzofuran-2-yl)methyl)-3-(1H-imidazol-2-yl)acrylamide] |  |  |  | > 30 | > 30 | > 30 |
| CC(=O)c1ccc(-c2cc(Cl)c3c(c2)CC(CNC(=O)/C=C/c2cccnn2)O3)s1 (stereo not drawn) [Compound 279, (E)-N-((5-(5-acetylthiophen-2-yl)-7-chloro-2,3-dihydrobenzofuran-2-yl)methyl)-3-(pyridazin-3-yl)acrylamide] |  |  |  | 0.1 to 5 | 0.1 to 5 | 0.1 to 5 |
| CC(=O)c1ccc(-c2cc(Cl)c3c(c2)CC(CNC(=O)/C=C/c2cncc(C)c2)O3)s1 (stereo not drawn) [Compound 280, (E)-N-((5-(5-acetylthiophen-2-yl)-7-chloro-2,3-dihydrobenzofuran-2-yl)methyl)-3-(5-methylpyridin-3-yl)acrylamide] | 0.1 to 5 | > 30 | 0.1 to 5 |  |  |  |
| CC(=O)c1ccc(-c2cc(Cl)c3c(c2)CC(CNC(=O)/C=C/c2csnn2)O3)s1 (stereo not drawn) [Compound 281, (E)-N-((5-(5-acetylthiophen-2-yl)-7-chloro-2,3-dihydrobenzofuran-2-yl)methyl)-3-(1,2,3-thiadizol-5-yl)acrylamide] | > 30 | > 30 | > 30 |  |  |  |
| CC(=O)c1ccc(-c2cc(Cl)c3c(c2)CC(CNC(=O)/C=C(/C)c2cccnc2)O3)s1 (stereo not drawn) [Compound 282, (Z)-N-((5-(5-Acetylthiophen-2-yl)-7-chloro-2,3-dihydrobenzofuran-2-yl)methyl)-3-(pyridin-3-yl)but-2-enamide] | 0.1 to 5 | > 30 | 0.1 to 5 |  |  |  |
| CC(=O)c1ccc(-c2cc(Cl)c3c(c2)CC(CNC(=O)/C=C(\C)c2cccnc2)O3)s1 (stereo not drawn) [Compound 283, (E)-N-((5-(5-acetylthiophen-2-yl)-7-chloro-2,3-dihydrobenzofuran-2-yl)methyl)-3-(pyridin-3-yl)but-2-enamide] | 5 to 30 | > 30 | 5 to 30 |  |  |  |
